{
  "source": "patent US8399473",
  "conditions": "from C=Cc1ccc(N2C(=O)N=C(NC3CCCCC3)C23CCN(Cc2ccc(I)cc2)CC3)cc1; cc_pd bond; 2 steps",
  "data": [
    {"smiles": "O=C1N=C(NC2CCCCC2)C23CCN(CC2)Cc2ccc(cc2)CCc2ccc(cc2)N13", "values": [
      {"measurement": "ring closure, yield of all isomers", "value": 2.3, "unit": "%"}
    ]}
  ]
}
